In this assay the target is EED (Homo sapiens, UniProt O75530). Nature of the assay: EED TR-FRET Binding Assay (modified LanthaScreen competition assay). The method, then: Compounds were tested in a modified LanthaScreen competition assay.
The following buffer was used to set up the binding reactions: 20 mM Tris-HCl pH 7.5, 200 mM NaCl, 0.01% Tween-20, 10 uM DTT (dithiothreitol), and 0.05% BSA (bovine serum albumin), with the DTT and BSA added fresh prior to initiating the binding assay. […] The reactions were then incubated for 1 hour at 25° C. in a humidified chamber prior to detection on the Perkin Elmer Envision plate reader using a Lanthascreen TR-FRET protocol.
In general terms: Time-resolved FRET reads energy transfer from a long-lived donor to a nearby acceptor.

pIC50: −log10 of the molar value.

Sequence of EED (O75530 whole entry): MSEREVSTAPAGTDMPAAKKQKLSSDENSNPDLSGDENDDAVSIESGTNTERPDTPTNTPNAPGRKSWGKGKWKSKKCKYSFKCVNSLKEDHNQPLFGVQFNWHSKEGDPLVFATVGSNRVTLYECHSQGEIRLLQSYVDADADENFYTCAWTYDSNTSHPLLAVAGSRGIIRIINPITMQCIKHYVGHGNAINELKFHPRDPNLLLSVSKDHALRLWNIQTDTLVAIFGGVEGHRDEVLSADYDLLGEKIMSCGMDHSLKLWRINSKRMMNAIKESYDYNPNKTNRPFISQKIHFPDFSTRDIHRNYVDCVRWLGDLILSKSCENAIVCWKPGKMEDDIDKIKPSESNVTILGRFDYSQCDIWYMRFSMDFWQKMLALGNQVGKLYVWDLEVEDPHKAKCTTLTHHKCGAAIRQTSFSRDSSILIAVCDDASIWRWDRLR

A word on the pIC50: it is the negative decadic logarithm of the IC50, by convention in mol/L. The low end stands for a high IC50, the high end for a low IC50. Consider `CN(C)[C@H]1CN([C@@H]2C[C@@H](O)c3cccc(F)c32)C[C@@H]1c1ccc(S(C)(=O)=O)cc1` (mixture of isomers) [Example 16, rac-(1R,3R)-3-{(3R,4S)-3-(dimethylamino)-4-[4-(methanesulfonyl)phenyl]pyrrolidin-1-yl}-4-fluoro-2,3-dihydro-1H-inden-1-ol], for which the negative logarithm of the IC50 (pIC50) is 6.31.

Regarding `CN(C)[C@H]1CN([C@H]2C[C@H](O)c3cccc(F)c32)C[C@@H]1c1ccc(S(C)(=O)=O)cc1` (mixture of isomers) [Example 18, rac-(1S,3S)-3-{(3R,4S)-3-(dimethylamino)-4-[4-(methanesulfonyl)phenyl]pyrrolidin-1-yl}-4-fluoro-2,3-dihydro-1H-inden-1-ol], the pIC50 was 7.79.

In the case of `CN(C)[C@H]1CN([C@H]2C[C@@H](O)c3cccc(F)c32)C[C@@H]1c1ccc(S(C)(=O)=O)cc1` (mixture of isomers) [Example 34, rac-(1R,3S)-3-{(3R,4S)-3-(dimethylamino)-4-[4-(methanesulfonyl)phenyl]pyrrolidin-1-yl}-4-fluoro-2,3-dihydro-1H-inden-1-ol], the pIC50 was 6.98.

On to `CN(C)[C@H]1CN([C@H]2CCc3cccc(F)c32)C[C@@H]1c1cn(C)c2cccnc12` (mixture of isomers) [Example 138, rac-(3R,4S)-1-[(1S)-7-fluoro-2,3-dihydro-1H-inden-1-yl]-N,N-dimethyl-4-(1-methyl-1H-pyrrolo[3,2-b]pyridin-3-yl)pyrrolidin-3-amine], for which the pIC50 was 6.92.

As to `CN(C)[C@@H]1CN([C@@H]2CCc3cccc(F)c32)C[C@H]1C1COc2ccccc21` (mixture of isomers) [Example 139, rac-(3S,4R)-4-(2,3-dihydro-1-benzofuran-3-yl)-1-[(1R)-7-fluoro-2,3-dihydro-1H-inden-1-yl]-N,N-dimethylpyrrolidin-3-amine], the pIC50 was 7.08.

Consider `CN(C)[C@H]1CN([C@@H]2CCc3cccc(F)c32)C[C@@H]1C1COc2ccccc21` (mixture of isomers) [Example 142, rac-(3R,4S)-4-(2,3-dihydro-1-benzofuran-3-yl)-1-[(1R)-7-fluoro-2,3-dihydro-1H-inden-1-yl]-N,N-dimethylpyrrolidin-3-amine], for which the negative logarithm of the IC50 (pIC50) was 7.59.

In turn, `CN(C)[C@H]1CN([C@@H]2CCc3cccc(F)c32)C[C@@H]1c1cn(C)c2cccnc12` (mixture of isomers) [Example 143, rac-(3R,4S)-1-[(1R)-7-fluoro-2,3-dihydro-1H-inden-1-yl]-N,N-dimethyl-4-(1-methyl-1H-pyrrolo[3,2-b]pyridin-3-yl)pyrrolidin-3-amine] gave a negative logarithm of the IC50 (pIC50) of 7.71.

On to `COC(=O)c1ccc([C@H]2CN(C3CCc4cccc(Cl)c43)C[C@@H]2N(C)C)cc1` (mixture of isomers) [Example 21, rac-methyl 4-[(3S,4R)-1-(7-chloro-2,3-dihydro-1H-inden-1-yl)-4-(dimethylamino)pyrrolidin-3-yl]benzoate], for which the negative-log IC50 (pIC50) was 7.15.

Molecule `Cc1cc([C@H]2CN(C3CCc4cccc(F)c43)C[C@@H]2N(C)C)ccc1Br` (mixture of isomers) [Example 27, rac-(3R,4S)-4-(4-bromo-3-methylphenyl)-1-(7-fluoro-2,3-dihydro-1H-inden-1-yl)-N,N-dimethylpyrrolidin-3-amine] showed a pIC50 of 8.74.

Molecule `CN(C)[C@H]1CN(C2CCc3cccc(Cl)c32)C[C@@H]1c1ccc(C(=O)O)cc1` (mixture of isomers) [Example 28, rac-4-[(3S,4R)-1-(7-chloro-2,3-dihydro-1H-inden-1-yl)-4-(dimethylamino)pyrrolidin-3-yl]benzoic acid] gave a negative logarithm of the IC50 (pIC50) of 6.31.

`CN(C)[C@@H]1CN(C2CCc3cccc(F)c32)C[C@H]1c1ccc(C(=O)O)cc1` (mixture of isomers) [Example 29, rac-4-[(3R,4S)-4-(dimethylamino)-1-(7-fluoro-2,3-dihydro-1H-inden-1-yl)pyrrolidin-3-yl]benzoic acid] gave a pIC50 of 7.63.

Consider `Cc1cc([C@H]2CN(C3CCc4cccc(F)c43)C[C@@H]2N(C)C)ccc1C(=O)O` (mixture of isomers) [Example 36, rac-4-[(3S,4R)-4-(dimethylamino)-1-(7-fluoro-2,3-dihydro-1H-inden-1-yl)pyrrolidin-3-yl]-2-methylbenzoic acid], for which the pIC50 is 7.84.

With `Cc1cc([C@H]2CN(C3c4ccccc4CC3O)C[C@@H]2N(C)C)ccc1C#N` (mixture of isomers) [Example 38, rac-4-[(3S,4R)-4-(dimethylamino)-1-(2-hydroxy-2,3-dihydro-1H-inden-1-yl)pyrrolidin-3-yl]-2-methylbenzonitrile], the pIC50 was 7.16.

In the case of `COC(=O)c1ccc([C@H]2CN(C3CCc4cccc(F)c43)C[C@@H]2N(C)C)cc1C` (mixture of isomers) [Example 39, rac-methyl 4-[(3S,4R)-4-(dimethylamino)-1-(7-fluoro-2,3-dihydro-1H-inden-1-yl)pyrrolidin-3-yl]-2-methylbenzoate], the pIC50 is 8.97.

For `CN1CCN(C(=O)c2ccc([C@H]3CN(C4CCc5cccc(F)c54)C[C@@H]3N(C)C)cc2)CC1=O` (mixture of isomers) [Example 51, rac-4-{4-[(3S,4R)-4-(dimethylamino)-1-(7-fluoro-2,3-dihydro-1H-inden-1-yl)pyrrolidin-3-yl]benzoyl}-1-methylpiperazin-2-one], the negative logarithm of the IC50 (pIC50) was 7.91.

Take `CN(C)[C@H]1CN(C2CCc3cccc(F)c32)C[C@@H]1c1ccc(C(=O)N2CCN(S(C)(=O)=O)CC2)cc1` (mixture of isomers) [Example 53, rac-{4-[(3S,4R)-4-(dimethylamino)-1-(7-fluoro-2,3-dihydro-1H-inden-1-yl)pyrrolidin-3-yl]phenyl}[4-(methanesulfonyl)piperazin-1-yl]methanone]: the pIC50 is 7.91.

On to `CC(=O)N1CCN(C(=O)c2ccc([C@H]3CN(C4CCc5cccc(F)c54)C[C@@H]3N(C)C)cc2)CC1` (mixture of isomers) [Example 55, rac-1-(4-{4-[(3S,4R)-4-(dimethylamino)-1-(7-fluoro-2,3-dihydro-1H-inden-1-yl)pyrrolidin-3-yl]benzoyl}piperazin-1-yl)ethan-1-one], for which the pIC50 was 7.88.

On to `CCS(=O)(=O)N1CCN(C(=O)c2ccc([C@H]3CN(C4CCc5cccc(F)c54)C[C@@H]3N(C)C)cc2)CC1` (mixture of isomers) [Example 57, rac-{4-[(3S,4R)-4-(dimethylamino)-1-(7-fluoro-2,3-dihydro-1H-inden-1-yl)pyrrolidin-3-yl]phenyl}[4-(ethanesulfonyl)piperazin-1-yl]methanone], for which the pIC50 was 7.91.

`Cc1coc(-c2ccc([C@@H]3CN(C4CCc5cccc(F)c54)C[C@H]3N(C)C)cc2)n1` (mixture of isomers) [Example 69, rac-(3S,4R)-1-(7-fluoro-2,3-dihydro-1H-inden-1-yl)-N,N-dimethyl-4-[4-(4-methyl-1,3-oxazol-2-yl)phenyl]pyrrolidin-3-amine] had a pIC50 of 8.41.

For the molecule `COC(=O)c1ccc2c([C@@H]3CN(C4CCc5cccc(F)c54)C[C@H]3N(C)C)cn(C)c2c1` (mixture of isomers) [Example 83, rac-methyl 3-[(3R,4S)-4-(dimethylamino)-1-(7-fluoro-2,3-dihydro-1H-inden-1-yl)pyrrolidin-3-yl]-1-methyl-1H-indole-6-carboxylate], the pIC50 was 7.96.

For the molecule `COC(=O)c1cccc2c([C@H]3CN(C4CCc5cccc(F)c54)C[C@@H]3N(C)C)cn(C)c12` (mixture of isomers) [Example 85, rac-methyl 3-[(3S,4R)-4-(dimethylamino)-1-(7-fluoro-2,3-dihydro-1H-inden-1-yl)pyrrolidin-3-yl]-1-methyl-1H-indole-7-carboxylate], the negative logarithm of the IC50 (pIC50) was 9.25.

For the molecule `CN(C)[C@H]1CN(C2CCc3c(F)cccc32)C[C@@H]1c1cn(C)c2ccccc12` (mixture of isomers) [Example 90, rac-(3R,4S)-1-(4-fluoro-2,3-dihydro-1H-inden-1-yl)-N,N-dimethyl-4-(1-methyl-1H-indol-3-yl)pyrrolidin-3-amine], the negative-log IC50 (pIC50) is 7.68.

In turn, `CN(C)[C@H]1CN(C2CCc3cc(F)ccc32)C[C@@H]1c1cn(C)c2ccccc12` (mixture of isomers) [Example 91, rac-(3R,4S)-1-(5-fluoro-2,3-dihydro-1H-inden-1-yl)-N,N-dimethyl-4-(1-methyl-1H-indol-3-yl)pyrrolidin-3-amine] showed a pIC50 of 7.51.

Consider `CN(C)[C@H]1CN(C2CCc3cccc(F)c32)C[C@@H]1c1cn(C)c2c(Br)cccc12` (mixture of isomers) [Example 93, rac-(3R,4S)-4-(7-bromo-1-methyl-1H-indol-3-yl)-1-(7-fluoro-2,3-dihydro-1H-inden-1-yl)-N,N-dimethylpyrrolidin-3-amine], for which the pIC50 is 8.56.

On to `CN(C)[C@H]1CN(C2CCc3cccc(F)c32)C[C@@H]1c1cn(C)c2cc(Br)ccc12` (mixture of isomers) [Example 94, rac-(3R,4S)-4-(6-bromo-1-methyl-1H-indol-3-yl)-1-(7-fluoro-2,3-dihydro-1H-inden-1-yl)-N,N-dimethylpyrrolidin-3-amine], for which the negative logarithm of the IC50 (pIC50) was 8.31.

With `CN(C)[C@H]1CN(C2CCc3cccc(F)c32)C[C@@H]1c1cn(C)c2cc(N3CCN(S(C)(=O)=O)CC3)ccc12` (mixture of isomers) [Example 120, rac-(3R,4S)-1-(7-fluoro-2,3-dihydro-1H-inden-1-yl)-4-{6-[4-(methanesulfonyl)piperazin-1-yl]-1-methyl-1H-indol-3-yl}-N,N-dimethylpyrrolidin-3-amine], the pIC50 is 8.46.

`CC(=O)N1CCN(c2ccc3c([C@H]4CN(C5CCc6cccc(F)c65)C[C@@H]4N(C)C)cn(C)c3c2)CC1` (mixture of isomers) [Example 121, rac-1-(4-{3-[(3S,4R)-4-(dimethylamino)-1-(7-fluoro-2,3-dihydro-1H-inden-1-yl)pyrrolidin-3-yl]-1-methyl-1H-indol-6-yl}piperazin-1-yl)ethan-1-one] gave a negative logarithm of the IC50 (pIC50) of 8.42.

`CN(C)[C@@H]1CN(C2CCc3cccc(F)c32)C[C@H]1c1cnc2n1CCCC2` (mixture of isomers) [Example 140, rac-(3S,4R)-1-(7-fluoro-2,3-dihydro-1H-inden-1-yl)-N,N-dimethyl-4-(5,6,7,8-tetrahydroimidazo[1,2-a]pyridin-3-yl)pyrrolidin-3-amine] showed a pIC50 of 7.21.

Source of the values: US9957274B2, “Indane inhibitors of EED and methods of their use” (AbbVie Inc., priority 2016, dated 2018).
